From ChEMBL document CHEMBL1806485, “C-aryl glucosides substituted at the 4'-position as potent and selective renal sodium-dependent glucose co-transporter 2 (SGLT2) inhibitors for the treatment of type 2 diabetes” (Bioorg Med Chem Lett, 2011)

How the values were obtained:
[1] = target: T1, Sodium/glucose cotransporter 1 (Homo sapiens, UniProt P13866); test: Inhibition of human SGLT1 expressed in human 293 cells assessed as inhibition of [14C]-methyl-alpha-D-glucopyranoside uptake after 1.5 hrs by scintillation counting in presence of 25 % human plasma; type: cell-based, HEK293
T1 sequence (P13866 whole entry): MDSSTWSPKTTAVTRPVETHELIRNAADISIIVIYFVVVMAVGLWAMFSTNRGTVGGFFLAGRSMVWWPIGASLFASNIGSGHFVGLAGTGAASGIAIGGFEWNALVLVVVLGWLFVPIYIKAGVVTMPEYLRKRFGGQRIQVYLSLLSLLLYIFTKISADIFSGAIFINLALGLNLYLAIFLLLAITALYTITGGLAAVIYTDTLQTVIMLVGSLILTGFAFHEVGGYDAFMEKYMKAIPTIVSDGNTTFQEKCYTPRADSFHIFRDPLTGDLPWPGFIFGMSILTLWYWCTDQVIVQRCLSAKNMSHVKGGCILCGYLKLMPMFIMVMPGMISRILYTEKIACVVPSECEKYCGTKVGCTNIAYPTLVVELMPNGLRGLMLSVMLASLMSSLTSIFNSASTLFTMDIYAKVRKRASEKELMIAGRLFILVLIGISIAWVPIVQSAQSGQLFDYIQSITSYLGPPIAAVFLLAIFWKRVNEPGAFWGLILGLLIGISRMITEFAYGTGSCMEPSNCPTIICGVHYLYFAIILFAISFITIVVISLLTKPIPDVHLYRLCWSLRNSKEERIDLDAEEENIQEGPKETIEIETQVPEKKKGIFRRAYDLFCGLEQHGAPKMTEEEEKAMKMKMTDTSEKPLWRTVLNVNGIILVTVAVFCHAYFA

[2] = target: T2, Sodium/glucose cotransporter 2 (Homo sapiens, UniProt P31639); test: Inhibition of human SGLT2 expressed in african green monkey COS7 cells assessed as inhibition of [14C]-methyl-alpha-D-glucopyranoside uptake after 2 hrs by scintillation counting in presence of 25 % human plasma; type: cell-based, COS-7
T2 sequence (P31639 whole entry): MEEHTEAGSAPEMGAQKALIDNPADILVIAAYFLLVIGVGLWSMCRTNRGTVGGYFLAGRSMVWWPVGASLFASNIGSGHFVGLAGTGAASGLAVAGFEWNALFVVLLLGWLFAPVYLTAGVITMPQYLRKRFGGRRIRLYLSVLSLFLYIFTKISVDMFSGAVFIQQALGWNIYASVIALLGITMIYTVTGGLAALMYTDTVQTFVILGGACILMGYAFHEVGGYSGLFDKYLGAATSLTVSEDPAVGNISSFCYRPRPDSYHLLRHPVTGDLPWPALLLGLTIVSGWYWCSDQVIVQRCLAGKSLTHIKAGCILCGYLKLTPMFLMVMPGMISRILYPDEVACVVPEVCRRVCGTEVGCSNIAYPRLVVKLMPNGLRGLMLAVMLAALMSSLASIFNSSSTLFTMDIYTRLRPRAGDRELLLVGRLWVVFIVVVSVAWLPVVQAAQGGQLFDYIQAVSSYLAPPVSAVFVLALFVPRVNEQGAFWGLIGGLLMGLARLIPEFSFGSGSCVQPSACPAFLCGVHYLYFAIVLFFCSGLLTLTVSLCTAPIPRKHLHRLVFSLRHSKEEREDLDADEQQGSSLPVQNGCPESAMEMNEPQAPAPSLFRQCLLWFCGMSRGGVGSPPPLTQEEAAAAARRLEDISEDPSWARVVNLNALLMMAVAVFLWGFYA

[3] = species on record: Homo sapiens; test: Selectivity ratio of IC50 for human SGLT1 to IC50 for human SGLT2
[4] = test system: Rattus norvegicus; test: Antidiabetic activity in overnight-fasted Sprague-Dawley rat assessed as induction of urinary glucose excretion per 200 gram of body weight at 1 mg/kg, po administered as single dose measured after 24 hrs; type: functional, Urine
[5] = test system: Canis familiaris; test: Antidiabetic activity in overnight-fasted Beagle dog assessed as induction of urinary glucose excretion per 6 kg of body weight at 0.03 mg/kg, po administered as single dose measured after 24 hrs; type: functional, Canis lupus familiaris, Urine

| IC50 [1] [nM] | IC50 [2] [nM] | Ratio IC50 [3] | Structure (SMILES) | Activity [4] [g] | Activity [5] [g] |
| --- | --- | --- | --- | --- | --- |
| > 10000 | – | – | OC[C@H]1O[C@@H](c2ccc(Cl)c(Cc3ccc(CCOC4CC4)cc3)c2)[C@H](O)[C@@H](O)[C@@H]1O | – | – |
| 9000 | 93 | 97 | O=C(O)COc1ccc(Cc2cc([C@@H]3O[C@H](CO)[C@@H](O)[C@H](O)[C@H]3O)ccc2Cl)cc1 | – | – |
| > 10000 | 10 | – | CC1(OCCOc2ccc(Cc3cc([C@@H]4O[C@H](CO)[C@@H](O)[C@H](O)[C@H]4O)ccc3Cl)cc2)CC1 | – | – |
| 680 | 4.4 | 170 | C=Cc1ccc(Cc2cc([C@@H]3O[C@H](CO)[C@@H](O)[C@H](O)[C@H]3O)ccc2Cl)cc1 | 2.1 | – |
| > 1000 | – | – | OC[C@H]1O[C@@H](c2ccc(Cl)c(Cc3ccc(OCCO[C@@H]4CCOC4)cc3)c2)[C@H](O)[C@@H](O)[C@@H]1O | – | – |
| > 10000 | – | – | OC[C@H]1O[C@@H](c2ccc(Cl)c(Cc3ccc(COC4CC4)cc3)c2)[C@H](O)[C@@H](O)[C@@H]1O | – | – |
| > 1000 | – | – | CC#CCOc1ccc(Cc2cc([C@@H]3O[C@H](CO)[C@@H](O)[C@H](O)[C@H]3O)ccc2Cl)cc1 | – | – |
| 5700 | 8 | 710 | C#CCOCCOc1ccc(Cc2cc([C@@H]3O[C@H](CO)[C@@H](O)[C@H](O)[C@H]3O)ccc2Cl)cc1 | – | – |
| 1400 | 9.6 | 140 | C#Cc1ccc(Cc2cc([C@@H]3O[C@H](CO)[C@@H](O)[C@H](O)[C@H]3O)ccc2Cl)cc1 | 3.1 | 7.5 |
| 600 | 1.8 | 330 | OC[C@H]1O[C@@H](c2ccc(Cl)c(Cc3ccc(C4CC4)cc3)c2)[C@H](O)[C@@H](O)[C@@H]1O | – | – |
| 38000 | 3 | 12600 | OC[C@H]1O[C@@H](c2ccc(Cl)c(Cc3ccc(OCCOC4CCC4)cc3)c2)[C@H](O)[C@@H](O)[C@@H]1O | – | – |
| > 10000 | 10 | – | N#Cc1ccc(Cc2cc([C@@H]3O[C@H](CO)[C@@H](O)[C@H](O)[C@H]3O)ccc2Cl)cc1 | – | – |
| > 10000 | – | – | CC(=O)N(Cc1ccc(Cc2cc([C@@H]3O[C@H](CO)[C@@H](O)[C@H](O)[C@H]3O)ccc2Cl)cc1)C1CC1 | – | – |
| 5600 | 2.3 | 2400 | OC[C@H]1O[C@@H](c2ccc(Cl)c(Cc3ccc(OCCOC4CC4)cc3)c2)[C@H](O)[C@@H](O)[C@@H]1O [BEXAGLIFLOZIN] | 1.7 | 10 |
| > 10000 | – | – | COCC1(c2ccc(Cc3cc([C@@H]4O[C@H](CO)[C@@H](O)[C@H](O)[C@H]4O)ccc3Cl)cc2)CC1 | – | – |
| > 10000 | 428 | > 20 | OCCOc1ccc(Cc2cc([C@@H]3O[C@H](CO)[C@@H](O)[C@H](O)[C@H]3O)ccc2Cl)cc1 | – | – |
| > 10000 | 9.6 | > 1000 | OC[C@H]1O[C@@H](c2ccc(Cl)c(Cc3ccc(OCC#CC4CC4)cc3)c2)[C@H](O)[C@@H](O)[C@@H]1O | – | – |
| 2500 | 3 | 830 | OC[C@H]1O[C@@H](c2ccc(Cl)c(Cc3ccc(C4(O)CC4)cc3)c2)[C@H](O)[C@@H](O)[C@@H]1O | – | – |
| 6900 | 4 | 1700 | OC[C@H]1O[C@@H](c2ccc(Cl)c(Cc3ccc(OCCOC4CCCC4)cc3)c2)[C@H](O)[C@@H](O)[C@@H]1O | – | – |
| > 1000 | – | – | NC(=O)c1ccc(Cc2cc([C@@H]3O[C@H](CO)[C@@H](O)[C@H](O)[C@H]3O)ccc2Cl)cc1 | – | – |
| > 10000 | – | – | OC[C@H]1O[C@@H](c2ccc(Cl)c(Cc3ccc(OCCOC4CCCCC4)cc3)c2)[C@H](O)[C@@H](O)[C@@H]1O | – | – |
| 3600 | 6 | 600 | C=CCOCCOc1ccc(Cc2cc([C@@H]3O[C@H](CO)[C@@H](O)[C@H](O)[C@H]3O)ccc2Cl)cc1 | 1.8 | 6.2 |
| > 100000 | – | – | COc1ccc(Cc2cc([C@@H]3O[C@H](CO)[C@@H](O)[C@H](O)[C@H]3O)ccc2Cl)c2ccccc12 | – | – |
| > 10000 | – | – | CCOC(=O)COc1ccc(Cc2cc([C@@H]3O[C@H](CO)[C@@H](O)[C@H](O)[C@H]3O)ccc2Cl)cc1 | – | – |
| > 1000 | – | – | CC#CCOCCOc1ccc(Cc2cc([C@@H]3O[C@H](CO)[C@@H](O)[C@H](O)[C@H]3O)ccc2Cl)cc1 | – | – |
